Test [1] deals with MDRPA (CCARM 2095) biofilm formation. In kind it is cell-based, multidrug-resistant Pseudomonas aeruginosa. The settings on record: overnight 37 °C, crystal violet staining. The source says:
Bacterial biofilms, comprising communities of bacterial cells encased in a matrix of polysaccharides and nucleic acids, present a significant challenge for conventional antibiotics due to the protective nature of this matrix. Biofilms can enhance bacterial resistance to antibiotics by up to 1000-fold compared to planktonic bacteria. To address this issue, there is an urgent need to discover and develop novel alternative therapeutic agents capable of effectively combating biofilm-forming bacteria. […] Our research specifically focused on evaluating the impact of BP100 and its analogs on biofilm formation and eradication using multidrug-resistant Pseudomonas aeruginosa (MDRPA), a common pathogen responsible for biofilm-mediated nosocomial infections. The adhered biomass was quantified using crystal violet staining, and the minimum biofilm inhibitory concentration (MBIC90) was determined as the lowest concentration required to inhibit 90% of biofilm growth relative to the positive control. […] Human cathelicidin LL-37 is well-documented for its potent antibiofilm properties.
The inhibitory activity of the peptides on biofilm formation was evaluated against multidrug-resistant Pseudomonas aeruginosa (MDRPA) (CCARM 2095) using a biofilm inhibition assay to determine the minimal biofilm inhibitory concentration (MBIC). Peptide solutions were serially diluted in sterile water and aliquoted (100 μL) into a 96-well Costar polypropylene plate (Corning Inc., Corning, NY, USA). An equal volume of MDRPA suspension in Mueller–Hinton Broth (MHB), adjusted to 1 × 10^6 CFU/mL, was added to each well, resulting in a final inoculum density of 5 × 10^5 CFU/mL. Following overnight incubation at 37 °C, bacterial growth was quantified by measuring the optical density (OD) at 595 nm. Planktonic cells were then discarded, and the attached biofilms were washed thrice with distilled water. Residual biofilms were stained with 0.1% crystal violet for five minutes, washed to remove non-adherent dye, and subsequently destained using 95% ethanol. The OD at 595 nm was measured again to assess the biofilm mass. Control wells contained untreated bacteria. The MBIC was defined as the lowest peptide concentration that inhibited any residual crystal violet staining or biofilm formation. All assays were conducted in triplicate to ensure reproducibility. This method allows for the quantitative assessment of the peptides’ ability to prevent biofilm formation, a critical virulence factor in many bacterial infections, particularly those caused by multidrug-resistant strains.

The subject of test [2] is preformed MDRPA (CCARM 2095) biofilms. In kind it is cell-based, multidrug-resistant Pseudomonas aeruginosa. The settings on record: 24 h treatment. As for the experimental part:
While preventing biofilm formation on surfaces is crucial, treating established biofilm infections presents a significant challenge due to the extracellular polymeric substance (EPS) matrix hindering antibiotic penetration and the high cell density within mature biofilms. To address this challenge, we evaluated the ability of BP100 and its analogs to eradicate established MDRPA biofilms over a 24 h period. The minimum biofilm eradication concentration (MBEC90) was determined using crystal violet staining as the lowest concentration that reduced biomass by more than 90%. Among these peptides, BP5, BP6, BP7, BP8, BP9, BP11, and BP13 eradicated preformed MDRPA biofilms by more than 90% at a concentration of 8 μM (Figure 3c,d and Table 3).
The minimal biofilm eradication concentration (MBEC) for peptides against the multidrug-resistant Pseudomonas aeruginosa (MDRPA) (CCARM 2095) strain was assessed using the Calgary Biofilm Device (CBD), supplied by Innovotech, Edmonton, AB, Canada. A bacterial suspension with a density of (1 × 10^6) CFU/mL in (150 µL) of Luria–Bertani (LB) media was dispensed into each well of a 96-well microtiter plate, which was equipped with a peg lid (Innovotech, product code: 19111). This plate was incubated at 37 °C for 24 h with agitation at 110 rpm, promoting biofilm formation on the pegs. Subsequently, the peg lid was washed with phosphate-buffered saline (PBS, 0.01 M) and relocated to a fresh plate containing varying peptide concentrations (200 µL per well). The biofilms were then subjected to these peptides under the same incubation conditions. After another PBS rinse, the peg lid was moved to a recovery plate filled with (200 µL) of LB media per well. To detach the biofilms from the pegs, the recovery plate underwent sonication in a water bath for 10 to 15 min. Finally, the recovery plate was incubated at 37 °C for 24 h with agitation at 110 rpm, allowing any surviving bacteria to proliferate and cause turbidity. The MBEC is defined as the lowest concentration of peptides that inhibited turbidity formation in the recovery plate in comparison to sterility controls. This experiment was conducted in triplicate, and the median value from each trial was recorded.

The next test has as its system bacterial strains. The test can be described thus: Geometric mean (GM) of MIC values over the bacterial strains. The settings on record: over the 11 bacterial strains of Table 2. In kind it is cell-based. As for the experimental part: The antibacterial efficacy of the synthesized peptides was evaluated by determining the minimal inhibitory concentrations (MICs) against six standard bacterial strains and five drug-resistant bacterial strains using the Clinical and Laboratory Standards Institute (CLSI) microdilution method. Melittin served as the positive control.
The minimal inhibitory concentrations (MICs) of the peptides against bacterial strains were determined using a modified broth-microdilution method in accordance with the National Committee for Clinical Laboratory Standards (NCCLS) guidelines. Overnight cultures were diluted in cation-adjusted Mueller–Hinton Broth (MHB) to achieve an inoculum density of 2 × 10^6 CFU/mL. A two-fold serial dilution of the peptide solution (100 μL) was introduced into microtiter plates, followed by the addition of 100 μL of bacterial suspension. The plates were then incubated at 37 °C for 24 h to determine the MICs. Wells containing only culture media served as negative controls, while those with added bacteria functioned as positive controls. The MIC, expressed in μM, was defined as the lowest peptide concentration that prevented visible bacterial growth. […]

For the next test, the system named is MDRPA (CCARM 2095). In kind it is cell-based, multidrug-resistant Pseudomonas aeruginosa. The settings on record: checkerboard, 37 °C, 24 h. The source says: Multidrug-resistant pathogens pose a significant challenge to both human and animal health. The steady decline in the discovery of new antibiotics has exacerbated the difficulty in developing effective therapies for infection control. Consequently, there is an urgent need for alternative strategies that can combat pathogens without inducing drug resistance. One such strategy involves the combination of different antimicrobial agents. The effects of antimicrobial peptides (AMPs) combined with conventional antibiotics often surpass those of individual drugs. […] The primary advantage of synergistic combinations lies in their ability to lower the concentration of each antimicrobial agent required for effective antibacterial activity. This approach offers several benefits, including reduced production costs, a decreased risk of adverse side effects, diminished toxicity to mammalian cells, and a lower likelihood of drug resistance development. In light of these potential advantages, we investigated the synergistic effects of BP100 and the five selected analogs in combination with ciprofloxacin against multidrug-resistant Pseudomonas aeruginosa (MDRPA) using a checkerboard synergy assay. Ciprofloxacin, an antibiotic belonging to the fluoroquinolone class, is commonly used to treat various bacterial infections, including urinary tract infections and pneumonia. It exerts a bactericidal effect by inhibiting bacterial DNA gyrase, thereby disrupting DNA replication and transcription […]. The fractional inhibitory concentration index (FICI) results for BP100 and its selected analogs, when paired with ciprofloxacin against MDRPA, are detailed in Table 5. […] Such combinations may offer a valuable approach to enhancing the efficacy of existing antibiotics and potentially mitigating the development of antimicrobial resistance.
The synergistic effects of peptide-antibiotic combinations against methicillin-resistant Staphylococcus aureus (MRSA; CCARM 3089) and multidrug-resistant Pseudomonas aeruginosa (MDRPA; CCARM 2095) were evaluated using the fractional inhibitory concentration index (FICI) method. Antibiotics and peptides were subjected to two-fold serial dilutions, mixed in equal ratios, and combined with a bacterial suspension adjusted to approximately 10^6 CFU/mL. The resulting mixtures were distributed into microplate wells and incubated at 37 °C with orbital shaking at 200 rpm for 24 h. Bacterial growth was monitored by measuring the optical density at 600 nm (OD600). The FICI was calculated using the broth microdilution checkerboard method, defined as the sum of the ratios of the minimum inhibitory concentrations (MICs) of each agent in combination to their individual MICs, according to the following equation: FICI = (MIC of antibiotic in combination/MIC of antibiotic alone) + (MIC of peptide in combination/MIC of peptide alone). The interpretation of FICI values was as follows: FICI ≤ 0.5 indicates synergy; 0.5 < FICI ≤ 1.0 indicates an additive effect; 1.0 < FICI ≤ 4.0 indicates indifference; and FICI > 4.0 indicates antagonism.

`CC[C@H](C)[C@H](NC(=O)[C@H](CCCCN)NC(=O)[C@H](CCC(=O)O)NC(=O)[C@H](CCCCN)NC(=O)[C@H](CO)NC(=O)[C@H](CCCCN)NC(=O)[C@H](CCCNC(=N)N)NC(=O)[C@H](Cc1ccccc1)NC(=O)[C@H](Cc1ccccc1)NC(=O)[C@H](CC(=O)O)NC(=O)CNC(=O)[C@H](CC(C)C)NC(=O)[C@@H](N)CC(C)C)C(=O)NCC(=O)N[C@@H](CCCCN)C(=O)N[C@@H](CCC(=O)O)C(=O)N[C@@H](Cc1ccccc1)C(=O)N[C@@H](CCCCN)C(=O)N[C@@H](CCCNC(=N)N)C(=O)N[C@H](C(=O)N[C@H](C(=O)N[C@@H](CCC(N)=O)C(=O)N[C@@H](CCCNC(=N)N)C(=O)N[C@H](C(=O)N[C@@H](CCCCN)C(=O)N[C@@H](CC(=O)O)C(=O)N[C@@H](Cc1ccccc1)C(=O)N[C@@H](CC(C)C)C(=O)N[C@@H](CCCNC(=N)N)C(=O)N[C@@H](CC(N)=O)C(=O)N[C@@H](CC(C)C)C(=O)N[C@H](C(=O)N1CCC[C@H]1C(=O)N[C@@H](CCCNC(=N)N)C(=O)N[C@H](C(=O)N[C@@H](CCC(=O)O)C(=O)N[C@@H](CO)C(=O)O)[C@@H](C)O)C(C)C)[C@@H](C)CC)C(C)C)[C@@H](C)CC` [LL-37, reference compound] returned an MBIC50 in test [1] (50% inhibition) of 32 to 64 µM. This molecule also gave an MBIC90 in test [1] (90% inhibition) of 64 µM. The same molecule had an MBEC50 in test [2] (50% eradication) of 32 µM. In test [2] (90% eradication), this molecule gave an MBEC90 of over 64 µM.
In the case of `CC[C@H](C)[C@H](NC(=O)CN)C(=O)NCC(=O)N[C@@H](C)C(=O)N[C@H](C(=O)N[C@@H](CC(C)C)C(=O)N[C@@H](CCCCN)C(=O)N[C@H](C(=O)N[C@@H](CC(C)C)C(=O)N[C@H](C(=O)N[C@H](C(=O)NCC(=O)N[C@@H](CC(C)C)C(=O)N1CCC[C@H]1C(=O)N[C@@H](C)C(=O)N[C@@H](CC(C)C)C(=O)N[C@H](C(=O)N[C@@H](CO)C(=O)N[C@@H](Cc1c[nH]c2ccccc12)C(=O)N[C@H](C(=O)N[C@@H](CCCCN)C(=O)N[C@@H](CCCNC(=N)N)C(=O)N[C@@H](CCCCN)C(=O)N[C@@H](CCCNC(=N)N)C(=O)N[C@@H](CCC(N)=O)C(=O)N[C@@H](CCC(N)=O)C(N)=O)[C@@H](C)CC)[C@@H](C)CC)[C@@H](C)O)[C@@H](C)O)C(C)C)C(C)C` [ME, melittin], in the test on bacterial strains, the “GM (geometric mean of MIC values)” value was determined as 24.0 µM.
Consider `O=C(O)c1cn(C2CC2)c2cc(N3CCNCC3)c(F)cc2c1=O` [ciprofloxacin, reference compound], for which the “MICB: MIC of ciprofloxacin alone” value with MDRPA (CCARM 2095) is 2048 µg/mL.

(Values after PMC11596392, “Enhanced Antibacterial, Anti-Inflammatory, and Antibiofilm Activities of Tryptophan-Substituted Peptides Derived from Cecropin A-Melittin Hybrid Peptide BP100” (Molecules, 2024).)
